Measurements reported in US20260166029A1, “METHODS AND SYSTEMS FOR TREATING DISEASE USING AN ATR/CHK1 SIGNALING PATHWAY INHIBITOR” (Acrivon Therapeutics, Inc., priority 2022, published 2026).

Key:
OVCAR3 = assay: Cell Titer Glo 2.0 relative cell viability, 72 h (Example 10); type: cell-based; details: Homo sapiens, OVCAR-3, OVCAR3 cell line, read-out: Abs IC50
Method: (§1) The present Example provides experimental evidence that cell lines predicted to be sensitive to a Chk1 inhibitor (e.g., prexasertib, are also sensitive to Wee1 inhibitors (e.g., adavosertib (AZD1775, MK1775) and azenosertib (Zn-C3)). Cell lines were treated with increasing doses of either prexasertib, adavosertib, or azenosertib, and relative cell viability against a DMSO control was assessed 72 h after drug treatment using Cell Titer Glo 2.0 (Promega) and a SpectraMax microplate reader. The results are shown in FIGS. 19A-19C. Error bars represent standard deviations from quadruplicate samples.

BxPC3 = assay: as above; type: cell-based; details: Homo sapiens, BXPC-3, BxPC3 cell line, read-out: Abs IC50
Method: as §1

T47D [1] = assay: as above; type: cell-based; details: Homo sapiens, T47D cell line, read-out: Abs IC50
Method: as §1

A2780 [2] = assay: as above; type: cell-based; details: Homo sapiens, A2780 cell line, read-out: Abs IC50
Method: as §1

A375 = assay: as above; type: cell-based; details: Homo sapiens, A-375, A375 cell line, read-out: Abs IC50
Method: as §1

PC3 = assay: as above; type: cell-based; details: Homo sapiens, PC-3, PC3 cell line, read-out: Abs IC50
Method: as §1

HeLa = assay: as above; type: cell-based; details: Homo sapiens, HeLa cell line, read-out: Abs IC50
Method: as §1

Anal, SCC = details: cited from earlier work
Ovarian, metastases = details: cited from earlier work
Ovarian, primary HGS = details: trial 2, 46 multi-center, 8-country study; cited from earlier work
ST1949 ovarian PDX tumor = assay: Response to prexasertib treatment in ovarian PDX tumor model (Example 3); type: in vivo
Excerpt: (§2) To evaluate whether the provided Response-Predictive Signature can predict response to prexasertib treatment, the predicted response for each PDX model was compared to an experimentally determined response to prexasertib treatment for the same PDX model. The experimentally measured response was quantified as follows: if a treated tumor reduced in size/volume, then the percent regression compared to an initial volume of a treated tumor was provided, if a treated tumor increased in size/volume, then a percent ratio of the treated tumor's growth was divided by control tumor (i.e., untreated tumor) growth (d[T/C]). Negative values for regression percentage indicate response to treatment with prexasertib, while positive values indicate continued growth and non-response to prexasertib treatment. The experimentally measured response was further categorized as complete regression (near −100% regression), partial regression (−50% to −100% regression), stasis (<20% median tumor growth to −50% regression), and growth (>20% median tumor growth).

ST416 ovarian PDX tumor = assay: as above; type: in vivo
Excerpt: as §2

[3] = test system: ST1986B ovarian PDX tumor; assay: as above; type: in vivo
Excerpt: as §2

ST255 ovarian PDX tumor = assay: as above; type: in vivo
Excerpt: as §2

ST1301 ovarian PDX tumor = assay: as above; type: in vivo
Excerpt: as §2

ST022 ovarian PDX tumor = assay: as above; type: in vivo
Excerpt: as §2

ST1526 ovarian PDX tumor = assay: as above; type: in vivo
Excerpt: as §2

ST025 ovarian PDX tumor = assay: as above; type: in vivo
Excerpt: as §2

BT549 = assay: Cell viability, sensitivity to prexasertib (Example 1); type: cell-based, human; details: BT549 cell line
Method: (§3) Predicted response to prexasertib was compared to experimentally measured sensitivity to prexasertib. […] EC50 values of less than or equal to 1 μM were considered to be actual responders, while values of greater than 1 μM were considered to be actual non-responders.

T47D [4] = assay: as above; type: cell-based, human; details: T47D cell line
Method: as §3

A2780 [5] = assay: as above; type: cell-based, human; details: A2780 cell line
Method: as §3

DU145 = assay: as above; type: cell-based, human; details: DU145 cell line
Method: as §3

Kuramochi = assay: as above; type: cell-based, human; details: Kuramochi cell line
Method: as §3

A549 = assay: as above; type: cell-based, human; details: A549 cell line
Method: as §3

[6] = based on measured sensitivity (EC50)
[7] = Homo sapiens, reduction in cell viability by 50%

With `COc1cccc(OCCCN)c1-c1cc(Nc2cnc(C#N)cn2)n[nH]1` [prexasertib, 5-(5-(2-(3-aminopropoxy)-6-methoxyphenyl)-1H-pyrazol-3-ylamino)pyrazine-2-carbonitrile] as the compound, how does the IC50 (OVCAR3) read?
The IC50 was 0.9 nM.

And the IC50 (BxPC3)?
The IC50 was 1.4 nM.

What about the IC50 (T47D [1]) of the same compound?
Its IC50 is over 10000 nM.

And the IC50 (A2780 [2])?
Its IC50 is over 10000 nM.

What about the IC50 (A375) of the same compound?
Its IC50 is 1.8 nM.

What about the IC50 (PC3) of the same compound?
The IC50 was over 10000 nM.

And the IC50 (HeLa)?
The IC50 was 15 nM.

And the ORR in trials (Anal, SCC)?
Its ORR in trials is 15%.

What about the ORR in trials (Ovarian, metastases; Ovarian, metastases, trial 1, NCI phase II trial) of the same compound?
The ORR in trials was 32% (trial 1*).

What about the response rate (Ovarian, metastases; single center, phase 2 study in ovarian cancer at NCI, single agent) of the same compound?
The response rate was 29%.

What about the ORR in trials (Ovarian, primary HGS) of the same compound?
Its ORR in trials is 19% (trial 2^).

And the Response type (ST1949 ovarian PDX tumor)?
The Response type was “G (G = growth)”.

What about the “Best d[T/C], or Regression” value (ST1949 ovarian PDX tumor; negative = regression) of the same compound?
The value was 56%.

What about the Response type (ST416 ovarian PDX tumor) of the same compound?
Its Response type is “S (S = stasis)”.

And the “Best d[T/C], or Regression” value (ST416 ovarian PDX tumor; negative = regression)?
Its value is −9%.

What about the Response type [3] of the same compound?
The Response type was “G (G = growth)”.

And the “Best d[T/C], or Regression” value ([3]; negative = regression)?
Its value is 35.1%.

What about the Response type (ST255 ovarian PDX tumor) of the same compound?
The Response type was “S (S = stasis)”.

What about the “Best d[T/C], or Regression” value (ST255 ovarian PDX tumor; negative = regression) of the same compound?
Its value is −8.9%.

What about the Response type (ST1301 ovarian PDX tumor) of the same compound?
Its Response type is “S (S = stasis)”.

And the “Best d[T/C], or Regression” value (ST1301 ovarian PDX tumor; negative = regression)?
The value was 1.2%.

What about the Response type (ST022 ovarian PDX tumor) of the same compound?
Its Response type is “G (G = growth)”.

What about the “Best d[T/C], or Regression” value (ST022 ovarian PDX tumor; negative = regression) of the same compound?
The value was 21.1%.

What about the Response type (ST1526 ovarian PDX tumor) of the same compound?
Its Response type is “PR (PR = partial regression)”.

What about the “Best d[T/C], or Regression” value (ST1526 ovarian PDX tumor; negative = regression) of the same compound?
Its value is −90%.

And the Response type (ST025 ovarian PDX tumor)?
The Response type was “G (G = growth)”.

What about the “Best d[T/C], or Regression” value (ST025 ovarian PDX tumor; negative = regression) of the same compound?
Its value is 48.9%.

And the Actual response status (BT549; [6])?
The Actual response status was “R (EC50 values of less than or equal to 1 μM were considered to be actual responders)”.

What about the EC50 (BT549; Homo sapiens, BT-549, reduction in cell viability by 50%) of the same compound?
The EC50 was 21 nM.

What about the EC50 (T47D [4]; [7]) of the same compound?
Its EC50 is over 10000 nM.

And the Actual response status (T47D [4]; [6])?
The Actual response status was “NR (values of greater than 1 μM were considered to be actual non-responders)”.

And the Actual response status (A2780 [5]; [6])?
Its Actual response status is “NR (values of greater than 1 μM were considered to be actual non-responders)”.

What about the EC50 (A2780 [5]; [7]) of the same compound?
Its EC50 is over 10000 nM.

And the Actual response status (DU145; [6])?
Its Actual response status is “NR (values of greater than 1 μM were considered to be actual non-responders)”.

What about the EC50 (DU145; Homo sapiens, DU-145, reduction in cell viability by 50%) of the same compound?
Its EC50 is over 10000 nM.

And the EC50 (Kuramochi; [7])?
The EC50 was 24 nM.

And the Actual response status (Kuramochi; [6])?
The Actual response status was “R (EC50 values of less than or equal to 1 μM were considered to be actual responders)”.

And the Actual response status (A549; [6])?
The Actual response status was “NR (values of greater than 1 μM were considered to be actual non-responders)”.

And the EC50 (A549; [7])?
Its EC50 is over 10000 nM.
